Reference: patent publication US20240052005A1, “IMPROVED CELL-PENETRATING PEPTIDES AND FUSION PROTEINS” (ANASTASIS BIOTEC LIMITED, priority 2020, published 2024)
“Also recorded” adds a separate entry of the source.

B1: MAML: unmodified recombinant MAML protein bearing a HIS-Tag (protein)
chain: LPRHSAVMERLRRRIELCRRHHSTCEARYEAVSPERLELERQHTFALHQRCIQAKAKRAGKH
modifications: also: His-tag, place not given here

Columns and labels:
Human cell-line SKOV3 = assay: Cell transduction visualised with FITC-conjugated anti-HIS antibody; type: cell-based; details: 0.01 mg/mL, 1 hour at 37° C.
Method: Human cell-line SKOV3 was cultured in DMEM media with 10% serum at 37° C., 5% CO2 until 40% confluency in a 96-well culture dish. The media was removed and replaced with 0.1 mL tissue culture-grade PBS and unmodified ANTP, unmodified MAML and ANTP-PEG-2-MAML were added to a final concentration of 0.01 mg/mL. Cell transduction was allowed to proceed for 1 hour at 37° C. Next, the PBS was removed and replaced with DMEM/serum and the cells were grown overnight as above. The transduced cells were then fixed using 1% glutaraldehyde at room temperature for 1 hr and permeabilized using Saponin at 1% concentration for 20 minutes at room temperature. Cells were then washed with PBS and visualized using FITC-conjugated-anti-HIS antibody (Miltenyi Biotech). Imaging was done using a GE-Incell-500 analyser visualizing the green fluorescence of the FITC at around 525 nm. […] This confirms the functionality of the ANTP-PEG-2-MAML protein.

SKOV-3 tumour cells = assay: Intranuclear trafficking into cancer cells, scored by immunofluorescence; type: cell-based, human; details: free protein alone
Description: FIG. 2 Intranuclear trafficking of ANTP and ANTP-p21 conjugates into the nuclei of SKOV-3 tumour cells.
Cells, into which the protein had penetrated intranuclearly, were scored positive by immunofluorescence.

| Molecule | MAML-His protein seen inside the cell cytosol and cell nucleus (Human cell-line SKOV3) | cellular uptake / translocation to the nuclei (SKOV-3 tumour cells) |
| --- | --- | --- |
| ANTP: Antennapedia cell-penetrating peptide, 60 amino acid sequence, recombinant | not |  |
| p21: free tumour-suppressor protein p21 |  | No cellular uptake; also recorded: did not translocate to the nuclei |
| B1 | not |  |
